Measured values reported in patent publication US7803375B2, “Methods and compositions for treating conditions of the eye” (Massachusetts Eye and Ear Infirmary, priority 2005, dated 2010).

What was measured:
[1] = typical; cited from earlier work
[2] = test system: Fas receptor; test: Retinal levels of Fas receptor after verteporfin PDT; format: in vivo; conditions: rat retina, FIG. 3

Compound	persistence in the target neovasculature [1]	retinal levels of the apoptotic death receptor Fas [2]
C=Cc1c(C)c2cc3nc(c(CC(=O)N[C@@H](CC(=O)O)C(=O)O)c4[nH]c(cc5nc(cc1[nH]2)C(C)=C5CC)c(C)c4C(=O)O)[C@@H](CCC(=O)O)[C@@H]3C [N-aspartyl chlorin e6]	about twenty	
CC(=O)[O-].CC(=O)[O-].CCc1c(CC)c2cc3nc(cnc4cc(OCCOCCOCCOC)c(OCCOCCOCCOC)cc4ncc4nc(cc1[n-]2)C(CCCO)=C4C)C(C)=C3CCCO.O.[Lu+3] [lutetium texaphyrin]	about twenty	
O=C([O-])c1c(Cl)c(Cl)c(Cl)c(Cl)c1-c1c2cc(I)c(=O)c(I)c-2oc2c(I)c([O-])c(I)cc12.[Na+].[Na+] [rose bengal]	about ten	
benzoporphyrin derivative	about fifty	
verteporfin		increases
